# Values joined by “and” are separate entries in the source; they are usually repeats but may differ in a detail not shown here. Equal values may be shown once.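 1) Cells in 96-well plates. 2) Compound, 48 h, 5 concentrations. 3) Linear interpolation between surrounding doses. 4) Unreached endpoint = highest concentration. GI50 is the concentration that inhibits growth by half. TGI denotes the concentration required for complete inhibition of growth.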
# How the values were obtained:
# Test in all cases: DTP human tumour cell line panel, 48 h
# [1] = system: RPMI-8226 leukemia
# [2] = system: UACC-62 melanoma
# [3] = system: HS 578T breast
# [4] = system: MCF7 breast
# [5] = system: SK-MEL-5 melanoma
# [6] = system: OVCAR-8 ovarian
# [7] = system: SF-295 CNS
# [8] = system: EKVX NSCLC
# [9] = system: CAKI-1 renal
# [10] = system: HCT-15 colon
SMILES,GI50 [1],TGI [1],GI50 [2],TGI [2],GI50 [3],TGI [3],GI50 [4],TGI [4],GI50 [5],TGI [5],GI50 [6],TGI [6],GI50 [7],TGI [7],GI50 [8],TGI [8],GI50 [9],TGI [9],GI50 [10],TGI [10]
COc1ccccc1-c1nccc(COc2ccccc2C[C@@H](Oc2ncnc3sc(-c4ccc(F)cc4)c(-c4ccc(OCCN5CCN(C)CC5)c(Cl)c4C)c23)C(=O)O)n1,< 0.0104 µM,0.285 µM,0.0761 µM,1.41 µM,0.515 µM,3.29 µM,0.0786 µM,1.95 µM,1.71 µM,3.12 µM,2.9 µM,> 28.4 µM,1.89 µM,3.91 µM,1.32 µM,5.03 µM,2.66 µM,9.89 µM,5.82 µM,16.4 µM
Cc1ccc2c(C(C[N+](=O)[O-])c3ccco3)c(-c3ccccc3)[nH]c2c1 (stereo not drawn),53.7 µM,> 100 µM,26.8 µM,> 100 µM,17.5 µM,> 100 µM,9.09 µM,> 100 µM,29.7 µM,> 100 µM,84.8 µM,> 100 µM,21.9 µM,> 100 µM,55 µM,> 100 µM,5.63 µM,> 100 µM,7.28 µM,> 100 µM
Cc1ccc(-c2cc(C(Cl)Cl)on2)cc1,33.8 µM,> 100 µM,66.8 µM,> 100 µM,> 100 µM,> 100 µM,97.6 µM,> 100 µM,25.3 µM,> 100 µM,> 100 µM,> 100 µM,60 µM,> 100 µM,46.1 µM,> 100 µM,43.8 µM,> 100 µM,42.4 µM,> 100 µM
Nc1ccc2c(SCC(=O)Nc3ccccc3-c3ccccc3NC(=O)CSc3c4ccccc4nc4cc(N)ccc34)c3ccccc3nc2c1,,38.6 µM,,56.5 µM,,> 90 µM,,> 100 µM,,30.1 µM,,73.2 µM,,98 µM,,> 100 µM,,> 83.5 µM,,> 93.8 µM
CC[C@H](C)[C@H](NC(=O)N[C@@H](C)c1ccccc1)C(=O)N(C)[C@H](C[C@@H](OC(C)=O)c1nc(C(=O)N[C@@H](Cc2ccccc2)C[C@H](C)C(=O)OC)cs1)C(C)C,8.74 µM,> 100 µM,6.96 µM,> 100 µM,15.9 µM,56.7 µM,7.28 µM,> 100 µM,13.1 µM,40.2 µM,35.4 µM,> 100 µM,25.6 µM,> 100 µM,37.5 µM,> 100 µM,37.2 µM,> 100 µM,25.4 µM,> 100 µM
CCn1c(-c2nonc2N)nc2c(C#CC(C)(C)O)ncc(OC[C@@H]3CCCN3)c21,24.8 µM,> 25 µM,7.2 µM,> 25 µM,1.72 µM,> 19.5 µM,1.71 µM,9.73 µM,10.5 µM,> 25 µM,6.4 µM,> 25 µM,3.07 µM,> 25 µM,11.7 µM,> 25 µM,> 25 µM,> 25 µM,> 25 µM,> 25 µM
NC1(C(=O)O)CSSC1,16.8 µM,50.8 µM,4.53 µM,20.1 µM,3.91 µM,> 100 µM,3.65 µM,23.9 µM,1.91 µM,3.68 µM,3.6 µM,24.4 µM,2.35 µM,8.25 µM,4.49 µM,35 µM,6.22 µM,40.5 µM,3.88 µM,84.7 µM
CN1CCN(CCCOc2ccc3ncnc(Nc4ccc(Oc5cccc(F)c5)c(Cl)c4)c3c2)CC1,1.58 µM,4.86 µM,1.75 µM,3.27 µM,1.76 µM,4.26 µM,1.57 µM,3.31 µM,1.62 µM,3.01 µM,2.19 µM,6.42 µM,1.8 µM,3.25 µM,1.31 µM,3.56 µM,1.52 µM,3.1 µM,1.27 µM,2.92 µM
CC(=O)Nc1ccc2c(c1)CN1C(=O)c3ccccc3C1=N2,> 100 µM,> 100 µM,> 100 µM,> 100 µM,> 100 µM,> 100 µM,> 100 µM,> 100 µM,> 100 µM,> 100 µM,> 100 µM,> 100 µM,> 100 µM,> 100 µM,> 100 µM,> 100 µM,> 100 µM,> 100 µM,> 100 µM,> 100 µM
Cc1cc(S(N)(=O)=O)c(S/C(=N\NS(=O)(=O)c2ccccc2)c2ccc(Cl)c(Cl)c2)cc1Cl,28.8 µM,> 100 µM,34.7 µM,> 100 µM,29.9 µM,99.3 µM,30.5 µM,> 100 µM,40.6 µM,> 100 µM,32.3 µM,> 100 µM,36.4 µM,> 100 µM,48.1 µM,> 100 µM,36.5 µM,> 100 µM,46.1 µM,> 100 µM
CC(=O)OC1Oc2cc(C)c(C)cc2-c2oc(=O)c(-c3ccccc3)cc21 (stereo not drawn),0.287 µM,0.969 µM,0.289 µM,> 32.6 µM,0.244 µM,1.42 µM,0.28 µM,27.5 µM,0.231 µM,4.06 µM,0.545 µM,> 84.5 µM,0.448 µM,> 34.9 µM,0.685 µM,> 100 µM,0.525 µM,> 54.1 µM,0.323 µM,> 100 µM
NC(=O)c1c(NC(=O)c2cccc(C(F)(F)F)c2)sc2c1CCC(=O)C2,0.127 µM,0.745 µM,0.368 µM,1.66 µM,0.545 µM,> 100 µM,0.203 µM,> 100 µM,1.18 µM,2.95 µM,0.519 µM,> 100 µM,1.23 µM,9.07 µM,2.12 µM,> 100 µM,0.351 µM,7.29 µM,0.321 µM,1.82 µM
Cc1ccc(NCCNCC(O)CO)c2c(=O)c3ccccc3sc12 (stereo not drawn),2.48 µM,6.83 µM,1.54 µM,3.08 µM,2.19 µM,5.9 µM,1.19 µM,2.65 µM,1.57 µM,2.93 µM,1.92 µM,4.77 µM,1.52 µM,3.09 µM,1.83 µM,3.77 µM,1.64 µM,3.38 µM,1.29 µM,2.72 µM
O=C(Nc1cccc(Cl)c1)c1cc(Cl)ccc1O,0.375 µM,2.18 µM,0.282 µM,1.21 µM,0.282 µM,1.46 µM,1.75 µM,> 26.6 µM,0.274 µM,0.857 µM,1.51 µM,5.43 µM,1.21 µM,3.75 µM,1.83 µM,> 26.3 µM,0.837 µM,5.79 µM,1.34 µM,
C=C1C(=O)C23CC1CCC2C12CO[C@@]3(O)[C@@H](O)C1C(C)(C)C=CC2=O (stereo partly drawn),,21.7 µM,4.89 µM,2.37 µM and 19.3 µM,,81.6 µM,,11.6 µM,,19.1 µM,3.37 µM,,18.1 µM,4.79 µM and 32 µM,18.7 µM,11.8 µM and 34.7 µM,,4.13 µM,1.81 µM,1.86 µM and 3.65 µM
N=C(N)SCC(=O)O,,> 100 µM,,> 100 µM,,> 100 µM,,> 100 µM,,> 100 µM,,> 100 µM,,> 100 µM,,> 100 µM,,> 100 µM,,> 100 µM
CC(C)(C)OC(=O)n1c(Cl)c(C(=O)N=C=S)c2ccccc21,24.4 µM,87.4 µM,28.8 µM,79 µM,25.5 µM,68.2 µM,37.2 µM,> 100 µM,18.8 µM,40.1 µM,23.3 µM,66.1 µM,33 µM,> 100 µM,29.6 µM,98.7 µM,34.6 µM,92 µM,30 µM,> 100 µM
COc1cc(/C=C2\C(=O)Nc3ccc(Br)cc32)cc(OC)c1OC,1.31 µM,> 41.8 µM,5.96 µM,> 100 µM,2.94 µM,> 78.7 µM,2.64 µM,> 100 µM,6.33 µM,> 100 µM,34.3 µM,> 100 µM,12 µM,68.9 µM,14.3 µM,> 100 µM,1.85 µM,> 44.1 µM,3.37 µM,> 100 µM
N#CC1=C(N)Oc2c(sc3c(Br)cccc23)C1c1ccc(F)cc1 (stereo not drawn),0.482 µM,19.7 µM,0.512 µM,23.5 µM,0.851 µM,52.7 µM,0.273 µM,14.3 µM,0.371 µM,12.9 µM,0.76 µM,24.4 µM,0.234 µM,0.815 µM,0.534 µM,23.2 µM,0.437 µM,31.9 µM,0.39 µM,11.4 µM
